According to PubChem BioAssay (NCI):
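All cell lines were grown in 96-well plates and treated with compound for 48 hours. TGI denotes the concentration required for complete inhibition of growth.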

Tests used:
Assay in all cases: NCI anticancer screen, dose series, 48 h
SNB-75 CNS = tested on: SNB-75 CNS
RPMI-8226 leukemia = tested on: RPMI-8226 leukemia
SF-295 CNS = tested on: SF-295 CNS
MALME-3M melanoma = tested on: MALME-3M melanoma
HL-60(TB) leukemia = tested on: HL-60(TB) leukemia
TK-10 renal = tested on: TK-10 renal
786-0 renal = tested on: 786-0 renal
IGROV1 ovarian = tested on: IGROV1 ovarian
SF-268 CNS = tested on: SF-268 CNS
MDA-N = tested on: MDA-N
KM12 colon = tested on: KM12 colon
HT29 colon = tested on: HT29 colon
OVCAR-4 ovarian = tested on: OVCAR-4 ovarian
RXF 393 renal = tested on: RXF 393 renal
SF-539 CNS = tested on: SF-539 CNS
NCI-H23 lung = tested on: NCI-H23 lung
T-47D breast = tested on: T-47D breast
HS 578T breast = tested on: HS 578T breast
SK-MEL-2 melanoma = tested on: SK-MEL-2 melanoma
SR leukemia = tested on: SR leukemia

| Structure (SMILES) | TGI (SNB-75 CNS) [µM] | TGI (RPMI-8226 leukemia) [µM] | TGI (SF-295 CNS) [µM] | TGI (MALME-3M melanoma) [µM] | TGI (HL-60(TB) leukemia) [µM] | TGI (TK-10 renal) [µM] | TGI (786-0 renal) [µM] | TGI (IGROV1 ovarian) [µM] | TGI (SF-268 CNS) [µM] | TGI (MDA-N) [µM] | TGI (KM12 colon) [µM] | TGI (HT29 colon) [µM] | TGI (OVCAR-4 ovarian) [µM] | TGI (RXF 393 renal) [µM] | TGI (SF-539 CNS) [µM] | TGI (NCI-H23 lung) [µM] | TGI (T-47D breast) [µM] | TGI (HS 578T breast) [µM] | TGI (SK-MEL-2 melanoma) [µM] | TGI (SR leukemia) [µM] |
| --- | --- | --- | --- | --- | --- | --- | --- | --- | --- | --- | --- | --- | --- | --- | --- | --- | --- | --- | --- | --- |
| COC(=O)[C@]1(c2cc3ccccc3[nH]2)CC2CN(CC(=O)N(C)OC)C1C1OC(C)(C)OC21 (stereo not given in full) | > 100 | 74 | > 100 | > 100 | 51.4 | > 100 | > 100 | > 100 | > 100 | > 100 | > 100 | > 100 | > 100 | > 100 | > 100 | > 100 | > 100 | > 100 | > 100 | – |
| CC(C)(C)OC(=O)C1/C(=C/CO)CN1C(=O)OC(C)(C)C (stereo not given) | – | > 100 | > 100 | > 100 | > 100 | > 100 | > 100 | > 100 | > 100 | > 100 | – | > 100 | > 100 | – | > 100 | > 100 | – | > 100 | > 100 | > 100 |
| O=C1c2c(Br)sc(Br)c2[C@H]2NC(=S)O[C@@H]12 | 34.7 | 45.5 | 45.5 | 29.8 | – | 57.9 | 28.5 | 32 | 30.2 | 30.6 | 38.1 | 33.5 | 31.9 | 27.9 | 33.6 | 29.9 | 69.3 | 60 | 33.4 | 15.3 |
| Cn1ncc2c(NCCc3ccccc3)nc(Cl)nc21 | 76.1 | 47.4 | 67.7 | > 100 | – | 65 | 64.2 | > 100 | > 100 | 56.5 | 85.5 | 31 | 57.7 | > 100 | – | > 100 | 79.3 | > 100 | 36.7 | – |
| Cc1c(-c2ccccc2)n(C)c2cn[nH]c(=O)c12 | – | > 100 | 65.1 | > 100 | > 100 | > 100 | 62.5 | > 100 | > 100 | > 100 | > 100 | 81.3 | – | – | > 100 | > 100 | – | > 100 | 48 | 70.9 |
| COc1cc(Cn2c3c(c4cc(O)ccc42)C(=O)c2ccccc2C3=O)cc(OC)c1 | – | 3.73 | 23.6 | 43.8 | > 100 | 34.9 | 10.2 | 13 | 15.5 | > 100 | 54.8 | 16.2 | 33.6 | 35.5 | 7.38 | 32.2 | 32.1 | > 100 | > 100 | 25.2 |
| COc1cc2c[n+](C)c3c4ccccc4ccc3c2cc1OC | 18.7 | 10.1 | > 73.3 | 5.53 | – | > 100 | 60.4 | – | 6.77 | > 36.7 | 2.65 | > 47.6 | 28.6 | 32.1 | 23.7 | 14.1 | 9.22 | 13 | 34.2 | – |
| COC(CNC(=O)C(C)NC(=O)C(C)NC(=O)c1ccccc1)OC (stereo not given) | > 100 | > 100 | > 100 | > 100 | – | > 100 | > 100 | > 100 | > 100 | > 100 | > 100 | > 100 | > 100 | > 100 | > 100 | > 100 | > 100 | > 100 | > 100 | > 100 |
| COc1cc2c(cc1OC)-c1cc3ccccc3c(=O)n1CCC2 | > 90.3 | 29.4 | > 85 | 98.1 | 11.5 | > 100 | > 51.3 | 66 | > 100 | 33.6 | 38 | 41.2 | > 100 | 57.5 | 26 | 65.1 | 68.9 | > 100 | 86.6 | – |
| Cn1cc(-c2ccc(CCOC3CCCCO3)cc2)c2c(C#N)cccc21 (stereo not given) | – | > 100 | > 100 | > 100 | > 100 | > 100 | > 100 | > 100 | > 100 | > 100 | > 100 | 45.3 | > 100 | > 100 | > 100 | > 100 | > 100 | > 100 | > 100 | > 100 |
| COC(=O)C1=NN2c3ccccc3CN([C@@H](C)c3ccccc3)C(=O)[C@@H]2C1 | – | 62.7 | > 100 | 62.8 | 48.6 | > 100 | > 100 | > 100 | > 100 | > 100 | 51.3 | > 100 | 26.1 | > 100 | > 100 | > 100 | 40.1 | 85.8 | 74.1 | 82.9 |
| OCCOCCO[P+]1(OCCOCCO)n2c3ccc2C(c2ccccc2)=C2C=CC(=N2)C(c2ccccc2)=c2ccc(n21)=C(c1ccccc1)C1=NC(=C3c2ccccc2)C=C1 | – | 0.0896 | 1.03 | 0.706 | 0.18 | 1.74 | 1.51 | – | – | 0.121 | 0.429 | 0.358 | 1.05 | – | – | 0.629 | 2.04 | 0.379 | – | – |
| CCOC(=O)c1sc2nc(SC)nc(Nc3ccc(OC)c(OC)c3)c2c1N | – | > 100 | 45.6 | > 100 | > 100 | 76.4 | > 100 | > 100 | 80.9 | > 100 | > 100 | > 100 | > 100 | 8.97 | > 100 | > 100 | > 100 | 64.3 | > 100 | > 100 |
| CNC(Cc1ccccc1)c1cccc(OC)c1O (stereo not given) | – | – | > 100 | > 100 | – | > 100 | > 100 | > 100 | > 100 | > 100 | > 100 | > 100 | > 100 | > 100 | – | > 100 | 60.4 | > 100 | > 100 | > 100 |
| Nc1nc(Nc2ccc(Cl)cc2)sc1C(=O)c1cc2ccccc2oc1=O | 68.8 | > 100 | – | 76.8 | > 100 | > 100 | > 100 | > 100 | > 100 | > 100 | > 100 | > 100 | > 100 | > 100 | > 100 | 89.5 | > 100 | > 100 | 75.8 | – |
| CC(=O)OC1CC(OC2C(O)CC(OC3C(O)CC(OC4CCC5(C)C(CCC6C5CC(O)C5(C)C(C7=CC(=O)OC7)CCC65O)C4)OC3C)OC2C)OC(C)C1O (stereo not given) (tested in a mixture with another compound) | 0.191 | – | 0.133 | 0.0479 | – | 0.114 | 0.13 | 0.176 | 0.119 | 0.147 | 0.116 | 0.0954 | 0.0538 | 0.0812 | 0.113 | 0.0346 | 0.41 | 0.435 | 0.207 | > 100 |
| COc1cc2cc(C(=O)N3CC(COS(C)(=O)=O)c4c3cc([N+](=O)[O-])c3ccccc43)[nH]c2c(OC)c1OC (stereo not given) | > 31.6 | > 31.6 | > 31.6 | – | – | > 31.6 | – | > 31.6 | > 31.6 | > 100 | > 31.6 | > 31.6 | > 31.6 | > 100 | > 31.6 | > 31.6 | > 31.6 | > 31.6 | > 31.6 | – |
| COc1cc(/C=C2\NC(=O)N(/C=C3\C(=O)Oc4ccccc4C3=O)C2=O)ccc1O | 77 | > 100 | > 100 | – | 62 | > 100 | > 100 | > 100 | > 100 | > 100 | > 100 | > 100 | > 100 | 99.2 | > 100 | > 100 | > 100 | > 100 | > 100 | – |
| COc1cc(OC)c(/C=N/N=C(\N)NO)c(OC)c1 | 64.7 | > 100 | > 100 | > 100 | – | > 100 | > 100 | > 100 | > 100 | > 100 | 96.4 | > 100 | > 100 | > 100 | > 100 | > 100 | > 100 | > 100 | > 100 | > 100 |
| COc1cccc(/C=N/n2c(-c3ccccc3)n[nH]c2=O)c1 | 93.2 | > 100 | 54.4 | > 100 | – | – | > 100 | – | 39.8 | > 100 | > 100 | > 100 | > 100 | – | > 100 | 90.5 | > 100 | 38.8 | > 100 | – |
| CC(=O)CN=C(C)NNc1ccc([N+](=O)[O-])cc1[N+](=O)[O-] | > 100 | > 100 | > 100 | > 100 | – | – | > 100 | > 100 | > 100 | > 100 | – | > 100 | > 100 | > 100 | > 100 | > 100 | > 100 | > 100 | > 100 | > 100 |
| Nc1nc(Cl)cc(Nc2ccc3c(c2)CCC3)n1 | – | 65.1 | > 100 | > 100 | 80.9 | > 100 | > 100 | > 100 | > 100 | > 100 | > 100 | > 100 | > 100 | – | > 100 | > 100 | > 100 | > 100 | > 100 | 63.3 |
| O=C(O)/C(=C\c1ccccc1)Cc1ccccc1 | > 100 | > 100 | > 100 | > 100 | > 100 | > 100 | > 100 | > 100 | > 100 | > 100 | > 100 | > 100 | > 100 | > 100 | > 100 | > 100 | > 100 | > 100 | > 100 | – |
| Nc1ncnc2c1ncn2CC(OCP(=O)(O)O)Oc1ccccc1 (stereo not given) | > 100 | > 100 | > 100 | – | – | > 100 | > 100 | – | > 100 | > 100 | > 100 | – | > 100 | > 100 | > 100 | – | > 100 | > 100 | > 100 | – |
| CC(=O)OCCn1c(Cc2ccc([N+](=O)[O-])cc2)nn(C(C)=O)c1=O | – | > 100 | > 100 | > 100 | > 100 | > 100 | > 100 | > 100 | > 100 | > 100 | > 100 | > 100 | > 100 | – | > 100 | > 100 | > 100 | > 100 | > 100 | > 100 |
| CC(=O)Oc1ccc(-c2cc3ccccc3oc2=O)cc1OC(C)=O | > 100 | > 100 | 67.9 | > 100 | 7.48 | > 100 | > 100 | – | > 100 | > 100 | 33.2 | > 100 | > 100 | – | > 100 | > 100 | > 100 | > 100 | > 100 | > 100 |
